Test results published in US20170304388A1, “NEW INDICATION OF CARDIOVASCULAR DRUGS FOR PREPARATION OF CANCER INHIBITION PHARMACEUTICAL COMPOSITION” (LAUNX BIOMEDICAL CO., LTD., priority 2014, published 2017).
Structures can show the parent of a compound that is named as a salt.

The compounds below were run on cancer cell lines (assay: Growth inhibitory effects on the panel of cancer cell lines). Details: drug 10 μM, 72 hours, WST-1.
Type: cell-based
NC(N)=Nc1nc(CSCCC(N)=NS(N)(=O)=O)cs1 [Famotidine (Pepcid), Famotidine] was tested, and the “inhibition effect on different cancer cell lines (in words)” value was “significant inhibition effect”. In the case of CNC[C@H](O)[C@@H](O)[C@H](O)[C@H](O)CO.CNC[C@H](O)[C@@H](O)[C@H](O)[C@H](O)CO.C[C@@H](O[C@H]1OCCN(Cc2nn(P(=O)(O)O)c(=O)[nH]2)[C@H]1c1ccc(F)cc1)c1cc(C(F)(F)F)cc(C(F)(F)F)c1 [Fosaprepitant dimeglumine], the “inhibition effect on different cancer cell lines (in words)” value is reported as “significant inhibition effect”. Cc1ccc(C)c(OCCCC(C)(C)C(=O)O)c1 [Gemfibrozil (Lopid), Gemfibrozil] was tested, and the “inhibition effect on different cancer cell lines (in words)” value was “significant inhibition effect”. With C[C@@H]1C(=O)O[C@H]2C[C@@]34[C@H]5C[C@@H](C(C)(C)C)[C@]36[C@@H](OC(=O)[C@@H]6O)O[C@@]4(C(=O)O5)[C@]21O [Ginkgolide A] the “inhibition effect on different cancer cell lines (in words)” value was “significant inhibition effect”. NCCc1c[nH]cn1.O=P(O)(O)O [Histamine Phosphate] was tested, and the “inhibition effect on different cancer cell lines (in words)” value was “significant inhibition effect”. With NS(=O)(=O)c1cc2c(cc1Cl)NCNS2(=O)=O [Hydrochlorothiazide] the “inhibition effect on different cancer cell lines (in words)” value was “significant inhibition effect”. With CCOC(=O)[C@H](CCc1ccccc1)N[C@@H](C)C(=O)N1C(=O)N(C)C[C@H]1C(=O)O [Imidapril (Tanatril) HCl, Imidapril HCl] the “inhibition effect on different cancer cell lines (in words)” value was “significant inhibition effect”. With CCCCC1=NC2(CCCC2)C(=O)N1Cc1ccc(-c2ccccc2-c2nnn[nH]2)cc1 [Irbesartan (Avapro), Irbesartan] the “inhibition effect on different cancer cell lines (in words)” value was “significant inhibition effect”. In the case of C[N+](C)(C)C[C@H](O)CC(=O)[O-] [L-carnitine (Levocarnitine), L-carnitine], the “inhibition effect on different cancer cell lines (in words)” value is reported as “significant inhibition effect”. CCOC(=O)C1=C(C)NC(C)=C(C(=O)OCC)C1c1ccccc1/C=C/C(=O)OC(C)(C)C [Lacidipine (Lacipil, Motens), Lacidipine] was tested, and the “inhibition effect on different cancer cell lines (in words)” value was “significant inhibition effect”. Nc1cccc2c1CN(C1CCC(=O)NC1=O)C2=O (stereo not drawn) [Lenalidomide] was tested, and the “inhibition effect on different cancer cell lines (in words)” value was “significant inhibition effect”. For CC(Oc1c(Cl)cccc1Cl)C1=NCCN1 (stereo not drawn) [Lofexidine HCl], the “inhibition effect on different cancer cell lines (in words)” value was “significant inhibition effect”. For COc1ccc(CN2CCN(C(c3ccc(F)cc3)c3ccc(F)cc3)CC2)c(OC)c1OC [Lomerizine HCl], the “inhibition effect on different cancer cell lines (in words)” value was “significant inhibition effect”. In the case of COc1ccc(OC)c(C(O)C(C)N)c1 (stereo not drawn) [Methoxamine HCl], the “inhibition effect on different cancer cell lines (in words)” value is reported as “significant inhibition effect”. In the case of CN1C(CCl)Nc2cc(Cl)c(S(N)(=O)=O)cc2S1(=O)=O (stereo not drawn) [Methyclothiazide], the “inhibition effect on different cancer cell lines (in words)” value is reported as “significant inhibition effect”. In the case of Cc1cc2c(cc1S(N)(=O)=O)S(=O)(=O)CCC2 [Meticrane], the “inhibition effect on different cancer cell lines (in words)” value is reported as “significant inhibition effect”. Cc1ccccc1N1C(=O)c2cc(S(N)(=O)=O)c(Cl)cc2NC1C (stereo not drawn) [Metolazone (Zaroxolyn), Metolazone] was tested, and the “inhibition effect on different cancer cell lines (in words)” value was “significant inhibition effect”. For CC[C@H](C)C(=O)O[C@H]1CCC=C2C=C[C@H](C)[C@H](CC[C@@H]3C[C@@H](O)CC(=O)O3)[C@H]21 [Mevastatin], the “inhibition effect on different cancer cell lines (in words)” value was “significant inhibition effect”. Cc1cccc(C)c1OCC(C)N (stereo not drawn) [Mexiletine HCl] was tested, and the “inhibition effect on different cancer cell lines (in words)” value was “significant inhibition effect”. O=C(O)[C@H](CC(=O)N1C[C@H]2CCCC[C@H]2C1)Cc1ccccc1 [Mitiglinide calcium] was tested, and the “inhibition effect on different cancer cell lines (in words)” value was “significant inhibition effect”. O=C1c2c(O)ccc(O)c2C(=O)c2c(NCCNCCO)ccc(NCCNCCO)c21 [Mitoxantrone Hydrochloride] was tested, and the “inhibition effect on different cancer cell lines (in words)” value was “significant inhibition effect”. N=C(N)c1ccc2cc(OC(=O)c3ccc(N=C(N)N)cc3)ccc2c1 [Nafamostat mesylate] was tested, and the “inhibition effect on different cancer cell lines (in words)” value was “significant inhibition effect”. O=C(NCCO[N+](=O)[O-])c1cccnc1 [Nicorandil (Ikorel), Nicorandil] was tested, and the “inhibition effect on different cancer cell lines (in words)” value was “significant inhibition effect”. With CS(=O)(=O)Nc1ccc([N+](=O)[O-])cc1Oc1ccccc1 [Nimesulide] the “inhibition effect on different cancer cell lines (in words)” value was “significant inhibition effect”. CCCc1nc(C(C)(C)O)c(C(=O)OCc2oc(=O)oc2C)n1Cc1ccc(-c2ccccc2-c2nnn[nH]2)cc1 [Olmesartan medoxomil (Benicar), Olmesartan medoxomil] was tested, and the “inhibition effect on different cancer cell lines (in words)” value was “significant inhibition effect”. For CCOC(=O)C1=C[C@@H](OC(CC)CC)[C@H](NC(C)=O)[C@@H](N)C1 [Oseltamivir phosphate (Tamiflu), Oseltamivir phosphate], the “inhibition effect on different cancer cell lines (in words)” value was “significant inhibition effect”. In the case of CCCCCCCCOc1ccccc1C(=O)Nc1ccc(C(=O)OCC[N+](C)(CC)CC)cc1 [Otilonium Bromide], the “inhibition effect on different cancer cell lines (in words)” value is reported as “significant inhibition effect”. With C=CCOc1ccccc1OCC(O)CNC(C)C (stereo not drawn) [Oxprenolol HCl] the “inhibition effect on different cancer cell lines (in words)” value was “significant inhibition effect”. With CCC(CC)[C@H](NC(C)=O)[C@@H]1[C@H](O)[C@@H](C(=O)O)C[C@H]1N=C(N)N.O.O.O [Peramivir Trihydrate] the “inhibition effect on different cancer cell lines (in words)” value was “significant inhibition effect”. In the case of Nc1ccc(/N=N/c2ccccc2)c(N)n1 [Phenazopyridine HCl], the “inhibition effect on different cancer cell lines (in words)” value is reported as “significant inhibition effect”. For O=C1c2ccccc2C(=O)C1c1ccccc1 [Phenindione (Rectadione), Phenindione], the “inhibition effect on different cancer cell lines (in words)” value was “significant inhibition effect”. Cc1ccc(N(CC2=NCCN2)c2cccc(O)c2)cc1 [Phentolamine mesilate] was tested, and the “inhibition effect on different cancer cell lines (in words)” value was “significant inhibition effect”. For CC(N/C(=N\C#N)Nc1ccncc1)C(C)(C)C (stereo not drawn) [Pinacidil], the “inhibition effect on different cancer cell lines (in words)” value was “significant inhibition effect”. CC(C)NCC(O)COc1cccc2[nH]ccc12 (stereo not drawn) [Pindolol] was tested, and the “inhibition effect on different cancer cell lines (in words)” value was “significant inhibition effect”. With C[C@]12CCC(=O)C=C1C=C[C@@H]1[C@@H]2CC[C@@]2(C)[C@H]1CC[C@@]2(O)CCC(=O)O [Potassium Canrenoate] the “inhibition effect on different cancer cell lines (in words)” value was “significant inhibition effect”. In the case of CC(=O)Oc1cc2c(s1)CCN(C(C(=O)C1CC1)c1ccccc1F)C2 (stereo not drawn) [Prasugrel (Effient), Prasugrel], the “inhibition effect on different cancer cell lines (in words)” value is reported as “significant inhibition effect”. In the case of CC(C)(Sc1cc(C(C)(C)C)c(O)c(C(C)(C)C)c1)Sc1cc(C(C)(C)C)c(O)c(C(C)(C)C)c1 [Probucol], the “inhibition effect on different cancer cell lines (in words)” value is reported as “significant inhibition effect”. With CC(C)NCC(O)COc1cccc2ccccc12 (stereo not drawn) [Propranolol HCl] the “inhibition effect on different cancer cell lines (in words)” value was “significant inhibition effect”. CN(C)C(=O)Oc1ccc[n+](C)c1 [Pyridostigmine Bromide (Mestinon), Pyridostigmine Bromide] was tested, and the “inhibition effect on different cancer cell lines (in words)” value was “significant inhibition effect”. C=C[C@H]1C[N@@]2CC[C@H]1C[C@H]2[C@H](O)c1ccnc2ccc(OC)cc12 [Quinine hydrochloride dihydrate] was tested, and the “inhibition effect on different cancer cell lines (in words)” value was “significant inhibition effect”. For COc1ccccc1OCC(O)CN1CCN(CC(=O)Nc2c(C)cccc2C)CC1 (stereo not drawn) [Ranolazine dihydrochloride], the “inhibition effect on different cancer cell lines (in words)” value was “significant inhibition effect”. With COC(=O)[C@H]1[C@H]2C[C@@H]3c4[nH]c5cc(OC)ccc5c4CCN3C[C@H]2C[C@@H](OC(=O)c2cc(OC)c(OC)c(OC)c2)[C@@H]1OC [Reserpine] the “inhibition effect on different cancer cell lines (in words)” value was “significant inhibition effect”. For C[C@H](Cc1cc2c(c(C(N)=O)c1)N(CCCO)CC2)NCCOc1ccccc1OCC(F)(F)F [Silodosin (Rapaflo), Silodosin], the “inhibition effect on different cancer cell lines (in words)” value was “significant inhibition effect”. For O=C(O[C@H]1CN2CCC1CC2)N1CCc2ccccc2[C@@H]1c1ccccc1 [Solifenacin succinate], the “inhibition effect on different cancer cell lines (in words)” value was “significant inhibition effect”. For CN[C@@H]1[C@H](O)[C@H](NC)[C@H]2O[C@@]3(O)C(=O)C[C@@H](C)O[C@H]3O[C@@H]2[C@H]1O [Spectinomycin hydrochloride], the “inhibition effect on different cancer cell lines (in words)” value was “significant inhibition effect”. CCOCC(O)COc1ccc(NC(=O)CC[S+](C)C)cc1 (stereo not drawn) [Suplatast tosylate] was tested, and the “inhibition effect on different cancer cell lines (in words)” value was “significant inhibition effect”. CCCc1nc2c(C)cc(-c3nc4ccccc4n3C)cc2n1Cc1ccc(-c2ccccc2C(=O)O)cc1 [Telmisartan (Micardis), Telmisartan] was tested, and the “inhibition effect on different cancer cell lines (in words)” value was “significant inhibition effect”. CS(=O)(=O)c1ccc([C@@H](O)[C@@H](CO)NC(=O)C(Cl)Cl)cc1 [Thiamphenicol (Thiophenicol), Thiamphenicol] was tested, and the “inhibition effect on different cancer cell lines (in words)” value was “significant inhibition effect”. CC(S)C(=O)NCC(=O)O (stereo not drawn) [Tiopronin (Thiola), Tiopronin] was tested, and the “inhibition effect on different cancer cell lines (in words)” value was “significant inhibition effect”. In the case of Cc1cccc(Nc2ccncc2S(=O)(=O)NC(=O)NC(C)C)c1 [Torsemide (Demadex), Torsemide], the “inhibition effect on different cancer cell lines (in words)” value is reported as “significant inhibition effect”. For O=C(O[C@H]1C[C@H]2CC[C@@H](C1)[N+]21CCCC1)C(O)(c1ccccc1)c1ccccc1 [Trospium chloride (Sanctura), Trospium chloride], the “inhibition effect on different cancer cell lines (in words)” value was “significant inhibition effect”.
